Measured values as given in patent US20250228913A1, “STABILIZED OMEGA-3 OPHTHALMIC COMPOSITIONS” (Allergan, Inc., priority 2014, published 2025).
Entries after “also recorded” stand apart in the source; their conditions may differ. Where two headings read alike, the source gives them in different places.

Assays:
[1] = Physical and chemical stability monitoring of emulsion prototypes with different antioxidants and additives
Method: A variety of ophthalmic compositions were evaluated which contained antioxidants with the intent to prevent the degradation of the omega-3 oil components. A common problem with omega-3 oils is their propensity to degrade and become rancid over time.
Emulsion prototypes were designed using a range of excipients including different surfactants, antioxidants and aqueous additives. The physical and chemical stability of these prototype formulations were monitored over 3, 6 and/or 12 months at accelerated and/or long-term storage conditions. […] Details of these stability studies are provided in the examples herein.

[2] = Chemical stability of omega-3 oils in emulsions (FIG. 1, FIG. 2); details: emulsions of Table 10
[3] = Physical appearance of omega-3 emulsions on storage; type: physicochemical; details: added in the oil phase

Compound	Effect of antioxidant or additive on stability of omega-3 oils [1]	Effect of excipient on chemical stability of omega-3 oils in emulsion [2]	Effect of antioxidant or additive on stability of omega-3 oils ([1]; in ophthalmic emulsions)	Effect on physical stability of omega-3 oils in emulsion [3]
CC(=O)C(=O)O [pyruvate]	did not impact stability	No significant impact	–	–
CC(=O)Oc1c(C)c(C)c2c(c1C)CCC(C)(CCC[C@H](C)CCC[C@H](C)CCCC(C)C)O2 (stereo partly drawn) [Vitamin E acetate]	–	–	did not show beneficial effects; also recorded: led to degradation of omega-3 oil	–
COc1ccc(O)c(C(C)(C)C)c1 [BHA, Butylated hydroxyanisole]	–	–	stabilizing effect	improved physical stability
Cc1cc(C(C)(C)C)c(O)c(C(C)(C)C)c1 [BHT, 2,6-bis(1,1-dimethylethyl)-4-methylphenol]	stabilizing effect	–	–	improved physical stability
O=C([O-])CN(CCN(CC(=O)[O-])CC(=O)O)CC(=O)O.[Na+].[Na+] [EDTA, edetate disodium]	–	No significant impact	did not impact stability	–

Continued, in another order:

Effect of antioxidant or additive on stability of omega-3 oils [1]	Effect of excipient on chemical stability of omega-3 oils in emulsion [2]	Compound	Effect of antioxidant or additive on stability of omega-3 oils ([1]; in ophthalmic emulsions)	Effect on physical stability of omega-3 oils in emulsion [3]
did not impact stability	–	OC[C@H]1O[C@H](O[C@H]2O[C@H](CO)[C@@H](O)[C@H](O)[C@H]2O)[C@H](O)[C@@H](O)[C@@H]1O [trehalose]	–	–
not effective	–	vitamin E	–	–
–	worsened the chemical stability	Cc1c(C)c2c(c(C)c1O)CC[C@@](C)(CCC[C@H](C)CCC[C@H](C)CCCC(C)C)O2 [alpha tocopherol]	–	–
